Test results reported in PubChem BioAssay (NCI).
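Abbreviation: GI50, concentration required for 50% inhibition of growth. TGI: total growth inhibition.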

Legend:
Assay in all cases: DTP human tumour cell line panel, 384-well format
[1] = system: 786-0 renal
[2] = system: A498 renal
[3] = system: A549 NSCLC
[4] = system: ACHN renal
[5] = system: BT-549 breast
[6] = system: CAKI-1 renal
[7] = system: CCRF-CEM leukemia
[8] = system: DU-145 prostate
[9] = system: EKVX NSCLC
[10] = system: HCT-116 colon
[11] = system: HCT-15 colon
[12] = system: HL-60(TB) leukemia
[13] = system: HOP-62 NSCLC
[14] = system: HOP-92 NSCLC
[15] = system: HS 578T breast
[16] = system: HT29 colon
[17] = system: IGROV1 ovarian
[18] = system: K-562 leukemia
[19] = system: KM12 colon
[20] = system: LOX IMVI melanoma
[21] = system: M14 melanoma
[22] = system: MALME-3M melanoma
[23] = system: MCF7 breast
[24] = system: MDA-MB-231 breast
[25] = system: MDA-MB-435 melanoma
[26] = system: MDA-MB-468 breast
[27] = system: NCI-H226 lung
[28] = system: NCI-H23 lung
[29] = system: NCI-H322M lung
[30] = system: NCI-H522 lung
[31] = system: NCI/ADR-RES ovarian
[32] = system: OVCAR-3 ovarian
[33] = system: OVCAR-4 ovarian
[34] = system: OVCAR-5 ovarian
[35] = system: OVCAR-8 ovarian
[36] = system: PC-3 prostate
[37] = system: RPMI-8226 leukemia
[38] = system: RXF 393 renal
[39] = system: SF-268 CNS
[40] = system: SF-295 CNS
[41] = system: SF-539 CNS
[42] = system: SK-MEL-2 melanoma
[43] = system: SK-MEL-28 melanoma
[44] = system: SK-OV-3 ovarian
[45] = system: SN12C renal
[46] = system: SNB-19 CNS
[47] = system: SNB-75 CNS
[48] = system: SW-620 colon
[49] = system: T-47D breast
[50] = system: TK-10 renal
[51] = system: U251 glioblastoma
[52] = system: UACC-257 melanoma
[53] = system: UACC-62 melanoma
[54] = system: UO-31 renal

COc1cc([C@@H]2c3cc4c(cc3[C@@H](OC3OC5CO[C@@H](c6cccs6)OC5C(O)C3O)[C@H]3COC(=O)[C@H]23)OCO4)cc(OC)c1O (stereo not given in full) was tested, and the GI50 [1] was 197 nM, the TGI [1] was 1180 nM and the GI50 [2] was 206 nM. The TGI [2] was 3510 nM, the GI50 [3] was 173 nM and the TGI [3] was 4080 nM. For the same molecule, the GI50 [4] was 296 nM, the TGI [4] was 1710 nM and the GI50 [5] was 75.8 nM. The TGI [5] was 537 nM, the GI50 [6] was 224 nM and the TGI [6] was 4460 nM. It also gave a TGI [7] of 21.9 nM, a GI50 [8] of 212 nM and a TGI [8] of 1210 nM. It also gave a GI50 [9] of 3010 nM, a TGI [9] of 28700 nM and a GI50 [10] of 67.8 nM. It also gave a TGI [10] of 2020 nM, a GI50 [11] of 170 nM and a TGI [11] of 1390 nM. The TGI [12] was 11.6 nM, the GI50 [13] was 74.1 nM and the TGI [13] was 267 nM. The GI50 [14] was 321 nM, the TGI [14] was 8750 nM and the GI50 [15] was 62.4 nM. It also gave a TGI [15] of 703 nM, a GI50 [16] of 236 nM and a TGI [16] of 1230 nM. The GI50 [17] was 1350 nM, the TGI [17] was 10000 nM and the GI50 [18] was 154 nM. The TGI [18] was 1420 nM, the GI50 [19] was 113 nM and the TGI [19] was 1350 nM. The GI50 [20] was 169 nM, the TGI [20] was 1570 nM and the GI50 [21] was 160 nM. It also gave a TGI [21] of 1150 nM, a GI50 [22] of 671 nM and a TGI [22] of 3970 nM. It also gave a GI50 [23] of 82.8 nM, a TGI [23] of 12200 nM and a GI50 [24] of 171 nM. It also gave a TGI [24] of 599 nM, a GI50 [25] of 756 nM and a TGI [25] of 2430 nM. The GI50 [26] was 138 nM, the TGI [26] was 350 nM and the GI50 [27] was 311 nM. For the same molecule, the TGI [27] was 8810 nM, the GI50 [28] was 77.1 nM and the TGI [28] was 664 nM. For the same molecule, the GI50 [29] was 3250 nM, the TGI [29] was 14300 nM and the GI50 [30] was 198 nM. The TGI [30] was 1530 nM, the GI50 [31] was 63700 nM and the TGI [31] was over 100000 nM. It also gave a GI50 [32] of 348 nM, a TGI [32] of 2070 nM and a GI50 [33] of 3420 nM. For the same molecule, the TGI [33] was 17400 nM, the GI50 [34] was 395 nM and the TGI [34] was 2410 nM. For the same molecule, the GI50 [35] was 151 nM, the TGI [35] was 1470 nM and the GI50 [36] was 1390 nM. The TGI [36] was 5760 nM, the TGI [37] was 161 nM and the GI50 [38] was 685 nM. For the same molecule, the TGI [38] was 2510 nM, the GI50 [39] was 134 nM and the TGI [39] was 1350 nM. It also gave a GI50 [40] of 103 nM, a TGI [40] of 490 nM and a GI50 [41] of 95.9 nM. It also gave a TGI [41] of 560 nM, a GI50 [42] of 567 nM and a TGI [42] of 890 nM. It also gave a GI50 [43] of 321 nM, a TGI [43] of 1970 nM and a GI50 [44] of 326 nM. The TGI [44] was 2670 nM, the GI50 [45] was 139 nM and the TGI [45] was 665 nM. It also gave a GI50 [46] of 219 nM, a TGI [46] of over 100000 nM and a GI50 [47] of 327 nM. For the same molecule, the TGI [47] was 1780 nM, the GI50 [48] was 44.9 nM and the TGI [48] was 1350 nM. For the same molecule, the GI50 [49] was 146 nM, the TGI [49] was 27300 nM and the GI50 [50] was 825 nM. For the same molecule, the TGI [50] was 2240 nM, the GI50 [51] was 67.4 nM and the TGI [51] was 1200 nM. The GI50 [52] was 2850 nM, the TGI [52] was 13100 nM and the GI50 [53] was 103 nM. It also gave a TGI [53] of 1800 nM, a GI50 [54] of 4000 nM and a TGI [54] of 17500 nM.
